In data set [1] the target is T1, G protein-coupled receptor 119 (GPR-119) (Mesocricetus auratus, UniProt A0A1U8CD06).
T1 construct: hamster-derived β-cells containing G protein-coupled receptor 119 (GPR-119), HIT-T15 cells; host or cells: HIT-T15 (hamster pancreatic β-cells)
T1 sequence (A0A1U8CD06 1-334): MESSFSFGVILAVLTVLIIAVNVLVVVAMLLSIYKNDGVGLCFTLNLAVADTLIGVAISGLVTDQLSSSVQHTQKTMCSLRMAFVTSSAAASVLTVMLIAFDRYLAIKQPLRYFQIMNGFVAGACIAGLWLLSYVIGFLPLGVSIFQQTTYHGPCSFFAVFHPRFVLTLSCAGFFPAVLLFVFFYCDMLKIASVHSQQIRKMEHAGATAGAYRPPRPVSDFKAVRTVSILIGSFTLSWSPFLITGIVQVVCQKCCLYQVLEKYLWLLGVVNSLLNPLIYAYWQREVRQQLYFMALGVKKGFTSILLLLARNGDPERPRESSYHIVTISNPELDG
Put plainly: cAMP activity in HIT-T15 cells (cAMP dynamic kit, FRET). In kind it is cell-based, hamster. In a few lines: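 Hamster HIT-T15 cells (60,000/well) were treated next day with compound at six concentrations, 0.0032–10 μM, for 1 h at 37° C. Cells were then lysed and cAMP measured by competitive HTRF immunoassay (D2-cAMP, cryptate anti-cAMP). Activity was derived as the change in FRET signal relative to DMSO.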

The target of a further data set is T2, CYP1A2 (Homo sapiens, UniProt P05177).
T2 construct: purchased BD GENTEST 459100
T2 sequence (P05177 1-516): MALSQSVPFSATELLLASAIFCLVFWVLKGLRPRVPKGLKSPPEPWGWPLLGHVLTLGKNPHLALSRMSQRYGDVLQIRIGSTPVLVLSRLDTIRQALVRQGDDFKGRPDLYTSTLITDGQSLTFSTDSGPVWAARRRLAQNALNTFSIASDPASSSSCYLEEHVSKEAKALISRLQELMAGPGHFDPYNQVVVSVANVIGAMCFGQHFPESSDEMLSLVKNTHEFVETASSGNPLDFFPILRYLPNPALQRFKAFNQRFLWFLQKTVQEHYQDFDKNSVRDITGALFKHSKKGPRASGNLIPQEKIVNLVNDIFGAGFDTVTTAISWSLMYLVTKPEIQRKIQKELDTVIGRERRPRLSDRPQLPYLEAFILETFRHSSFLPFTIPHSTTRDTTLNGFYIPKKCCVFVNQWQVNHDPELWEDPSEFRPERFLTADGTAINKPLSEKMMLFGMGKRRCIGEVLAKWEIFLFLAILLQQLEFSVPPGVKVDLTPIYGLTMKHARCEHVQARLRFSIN
Kind of data set: CYP inhibition assay (BD GENTEST kit). In kind it is in vitro ADME. Particulars: for inhibition at 15 min, 10 µM: human, CYP1A2 enzyme/substrate mixture of BD GENTEST kit, pH 7.4, 10 μM, read-out: CYP inhibition (% at 10 μM) 1A2. From the text:
(§1) CYP enzymes play a major role in the metabolism of drugs. Depending on the inhibition activity of the CYP enzymes, the dose of the drugs and toxicity due to the co-administration of other drugs can be predicted. Therefore, we have measured the inhibitory activity for CYP3A4, CYP2C9, CYP1A2, CYP2D6 and CYP2C19 enzymes present in the body using the compounds of the present invention. Invitrogen P2862 kit was used for CYP2D6 inhibition assay, and BD GENTEST (459100, 459300, 459400, 459500) kits were used for CYP1A2, CYP2C9, CYP2C19 and CYP3A4 inhibition assay. In case of Invitrogen kit, the test materials were diluted in distilled water into 2.5× of the final test concentration.
(§2) In case of BD GENTEST kit, the test materials were diluted in acetonitrile into 50× of the final test concentration. NADPH-cofactor mixture containing cofactor, G6PDH and control protein was prepared in distilled water as per manufacturer's instruction. 4 μl of 50× test materials and 96 μl of NADPH-cofactor mixture were mixed in U-bottom 96-well plate, and the resulting mixture were pre-incubated at 37° C. for 10 minutes. Predetermined concentrations of enzyme/substrate mixture were prepared in distilled water using buffer (0.5M potassium phosphate, pH 7.4) and each of CYP450 enzyme/substrate mixture provided in the kit for the types of CYP450. To the pre-incubated plate, 100 μl of enzyme/substrate mixture was added, and then incubated at 37° C. for 15 minutes (CYP1A2), 30 minutes (CYP3A4 and CYP2C19) or 1.5 hours (CYP2C9). After completion of the reaction, the reactants were transferred to the white plates, and fluorescent values were measured using a micro-plate reader (Excitation and absorption wavelengths of CYP1A2 and CYP2C19 were 410 nm and 460 nm, respectively; and excitation and absorption wavelengths of CYP2C9 and CYP3A4 were 409 nm and 530 nm, respectively).
(§3) The measured values were converted into the inhibition percent of the test materials as compared to the value of the untreated control, and the results were summarized in Table 5.

For a further data set, the target named is T3, CYP2C19 (Homo sapiens, UniProt P33261).
T3 construct: purchased BD GENTEST 459400
T3 sequence (P33261 whole entry): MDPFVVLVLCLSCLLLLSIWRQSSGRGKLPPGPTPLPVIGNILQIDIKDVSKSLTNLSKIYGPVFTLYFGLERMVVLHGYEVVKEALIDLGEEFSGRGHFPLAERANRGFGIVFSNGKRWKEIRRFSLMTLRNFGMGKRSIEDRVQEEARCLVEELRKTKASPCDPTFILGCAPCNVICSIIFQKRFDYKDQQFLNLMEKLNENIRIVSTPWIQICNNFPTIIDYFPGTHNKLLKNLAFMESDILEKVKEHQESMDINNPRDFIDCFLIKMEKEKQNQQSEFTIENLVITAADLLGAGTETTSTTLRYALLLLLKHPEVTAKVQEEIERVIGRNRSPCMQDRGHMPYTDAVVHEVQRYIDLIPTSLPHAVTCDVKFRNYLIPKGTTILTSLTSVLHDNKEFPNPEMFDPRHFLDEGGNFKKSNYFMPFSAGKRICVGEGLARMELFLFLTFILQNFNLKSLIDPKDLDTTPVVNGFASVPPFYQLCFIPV
Put plainly: CYP inhibition assay (BD GENTEST kit). The class given is in vitro ADME. Particulars: human, CYP2C19 enzyme/substrate mixture of BD GENTEST kit, pH 7.4, 10 μM; read-out: CYP inhibition (% at 10 μM) 2C19.
Source text: as §1, §2, §3

The next data set has as its target T4, CYP2C9 (Homo sapiens, UniProt P11712).
T4 construct: purchased BD GENTEST 459300
Kind of data set: CYP inhibition assay (BD GENTEST kit). The class given is in vitro ADME. The settings on record: for inhibition at 1.5 h, 10 µM: human, CYP2C9 enzyme/substrate mixture of BD GENTEST kit, pH 7.4, 10 μM, read-out: CYP inhibition (% at 10 μM) 2C9.
Source text: as §1, §2, §3

The next data set has as its target T5, CYP3A4 (Homo sapiens, UniProt P08684).
T5 construct: purchased BD GENTEST 459500
Kind of data set: CYP inhibition assay (BD GENTEST kit). The class given is in vitro ADME. The settings on record: human, CYP3A4 enzyme/substrate mixture of BD GENTEST kit, pH 7.4, 10 μM; read-out: CYP inhibition (% at 10 μM) 3A4.
Source text: as §1, §2, §3

The target in another data set is T6, CYP2D6 (Homo sapiens, UniProt P10635).
T6 construct: purchased Invitrogen P2862
T6 sequence (P10635 whole entry): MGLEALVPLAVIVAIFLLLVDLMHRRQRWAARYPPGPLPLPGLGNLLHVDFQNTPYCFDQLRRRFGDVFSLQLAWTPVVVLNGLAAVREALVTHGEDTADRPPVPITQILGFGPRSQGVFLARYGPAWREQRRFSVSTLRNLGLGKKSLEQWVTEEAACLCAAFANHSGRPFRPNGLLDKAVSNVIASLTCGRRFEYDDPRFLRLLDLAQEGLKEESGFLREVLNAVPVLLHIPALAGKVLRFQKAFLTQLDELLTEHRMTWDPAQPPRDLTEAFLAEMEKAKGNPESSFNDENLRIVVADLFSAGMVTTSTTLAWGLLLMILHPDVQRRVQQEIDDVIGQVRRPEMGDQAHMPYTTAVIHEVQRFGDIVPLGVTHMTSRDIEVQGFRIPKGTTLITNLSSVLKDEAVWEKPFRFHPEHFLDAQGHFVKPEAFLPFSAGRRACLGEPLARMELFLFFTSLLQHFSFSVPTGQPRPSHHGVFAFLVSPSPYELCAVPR
Kind of data set: CYP inhibition assay (Invitrogen P2862 kit). The class given is in vitro ADME. The settings on record: for inhibition at 1 h, 10 µM: human, CYP2D6 P450 BACULOSOMES (Invitrogen P2862 kit), probe Vivid CYP450 substrate, read-out: CYP inhibition (% at 10 μM) 2D6.
Source text: as §1
P450 BACULOSOMES® reagent and regeneration device (100×) provided by the Invitrogen kit were diluted in the Vivid® reaction buffer (2×) into the appropriate concentration for the type of CYP450. After mixing 80 μl of the 2.5× test material and 100 μl of the mixture of the diluted P450 BACULOSOMES® reagent in U-bottom 96-well plate, the resulting mixture was pre-incubated for 20 minutes. Vivid® CYP450 substrate and NADP+ (100×) were diluted in the Vivid® CYP450 reaction buffer (2×) into the appropriate concentration for the types of CYP450 and the substrates. After completion of the pre-incubation, 20/l of the substrate-NADP (nicotinamide adenine dinucleotide phosphate) mixture was added, and then incubated for 1 hour. After completion of the reaction, the reactants were transferred to the white plates, and fluorescence values were measured using a micro-plate reader (Excitation and absorption wavelengths of CYP2D6 were 400 nm and 502 nm, respectively).
as §3

The subject of data set [2] is male C57BL/6J (C57 black 6) rats in a high-fat diet model. Kind of data set: Oral glucose tolerance test (OGTT), high-fat diet model. In kind it is in vivo. The settings on record: 20 mg/kg oral, Table 3. As for the experimental part: To evaluate in vivo effective effects of the cyclohexene derivatives according to the present invention, experiments were carried out, as follows.
Specifically, male C57BL/6J (C57 black 6) […] (8 to 10 weeks old) in a high-fat diet model were acclimated for at least 7 days, and only healthy rat populations were selected and subjected to an oral glucose tolerance test (OGTT). The rats were fasted for 12 to 15 hours, and then randomly divided into groups with five rats per group. Thereafter, each of the compounds of Examples 1, 14, 48, 69, 80, 118, 139, 147, 148, 169, 190, 199, 200, 204, 227, 277, 290, 291, 442, 443, and 461 to 466, and Comparative Examples 1 and 2 according to the present invention was administered to the rats at a dose of 20 mg/kg. In this case, a vehicle (0.5%, carboxymethyl cellulose (CMC)) was administered as an untreated group, and the dose of the compound administered together with the vehicle was orally administered at 10 ml/kg. After 30 minutes of administration, glucose (2 g/kg) was orally administered at a dose of 10 ml/kg. A blood glucose level was measured using an Accu-Chek Active Strip (Rosche Diagnostic Co.). In this case, the glucose level in blood collected via caudal venipuncture was measured at time points of −30, 0, 20, 40, 60, and 120 minutes after glucose administration. […]

Data set [3] deals with diet-induced obesity (DIO) rat model. Kind of data set: Changes in weights in diet-induced obesity (DIO) rat model, 4-week administration. In kind it is in vivo, Sprague Dawley (SD) rats. Particulars: 5 mg/kg oral, 4 weeks. On the procedure: To simultaneously evaluate both the weight-loss and hypoglycemic effects of the cyclohexene derivative according to the present invention, experiments were carried out, as follows.
Specifically, male Sprague Dawley (SD) rats (approximately 4 weeks old) in a diet-induced obesity model were fed with a high-fat diet (Lab. Diet Co.) for approximately 10 weeks to induce high-fat diet-induced obesity (DIO). The rats undergoing the high-fat diet were randomly selected, and divided into groups (n=8) for respective administrations. The compounds of Comparative Examples 3 and 4 and Examples 48 and 119 were administered to the divided DIO rats each group for 4 weeks.
The weights of the DIO rats were measured twice a week during a period of administration of 4 weeks to record a change in the weights. At the end of the 4-week period of administration, a hypoglycemic effect was evaluated using an oral glucose tolerance test (OGTT), as follows.

Where [4] appears, read: 1 hour at 37° C., six concentrations 0.0032 to 10 μM, read-out: EC50.

This is an account of results in patent US10723699B2 (Hyundai Pharm Co., Ltd., priority 2015, dated 2020).

Entries after “also recorded” stand apart in the source; their conditions may differ. Like-named read-outs stand apart in the source and are kept apart here.

T5 sequence (P08684 whole entry): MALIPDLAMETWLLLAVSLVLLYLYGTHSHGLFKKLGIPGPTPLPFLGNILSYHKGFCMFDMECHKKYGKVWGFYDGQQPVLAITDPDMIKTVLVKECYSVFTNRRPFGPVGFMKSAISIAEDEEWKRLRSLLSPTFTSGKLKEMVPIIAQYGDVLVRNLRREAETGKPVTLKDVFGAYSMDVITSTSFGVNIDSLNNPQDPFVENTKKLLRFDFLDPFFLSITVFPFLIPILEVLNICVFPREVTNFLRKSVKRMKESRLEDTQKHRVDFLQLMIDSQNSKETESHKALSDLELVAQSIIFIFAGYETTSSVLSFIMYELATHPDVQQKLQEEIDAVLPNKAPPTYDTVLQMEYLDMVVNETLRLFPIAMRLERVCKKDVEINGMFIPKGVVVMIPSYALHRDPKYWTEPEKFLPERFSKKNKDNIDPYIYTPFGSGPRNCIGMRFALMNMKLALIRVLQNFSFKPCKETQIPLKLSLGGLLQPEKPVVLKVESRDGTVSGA
T4 sequence (P11712 whole entry): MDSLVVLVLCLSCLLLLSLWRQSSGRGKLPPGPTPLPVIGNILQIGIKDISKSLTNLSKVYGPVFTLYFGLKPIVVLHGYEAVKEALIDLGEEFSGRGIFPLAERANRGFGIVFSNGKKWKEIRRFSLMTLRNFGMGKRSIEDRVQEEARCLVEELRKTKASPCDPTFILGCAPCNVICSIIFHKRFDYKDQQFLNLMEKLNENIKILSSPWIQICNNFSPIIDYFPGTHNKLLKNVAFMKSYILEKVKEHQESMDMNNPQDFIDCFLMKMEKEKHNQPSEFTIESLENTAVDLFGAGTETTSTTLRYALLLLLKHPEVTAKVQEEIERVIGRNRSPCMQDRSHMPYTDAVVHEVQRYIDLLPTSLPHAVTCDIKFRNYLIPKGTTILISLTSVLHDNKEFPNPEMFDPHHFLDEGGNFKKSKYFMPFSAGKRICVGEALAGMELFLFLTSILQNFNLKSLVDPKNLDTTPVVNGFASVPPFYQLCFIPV

One may read the EC50 as the concentration at which the effect is half-maximal. As a reminder, the inhibition is the drop in the measured response relative to a control, in per cent. `CCc1cnc(N2CCC(COc3ccc(C4=CCC(C(=O)N5CCC[C@@H]5CO)CC4)cc3)CC2)nc1` (single isomer, unassigned; (+)) [Example 290]: the concentration for a half-maximal effect (EC50) in data set [1] (setting [4]) was 3.8 nM; in data set [1] (Table 2, read-out: EC50 value) it was at most 50 nM. Further, the “CYP inhibition (% at 10 μM) 1A2” value on CYP1A2 (10 μM) was 3.82%. The inhibition at 30 min, 10 µM on CYP2C19 worked out at 44.9%; on CYP3A4, 33.1%. Also, at CYP2C9 (10 μM), the “CYP inhibition (% at 10 μM) 2C9” value is listed as 23.97%. On CYP2D6 (10 µM), the “CYP inhibition (% at 10 μM) 2D6” value was 48.97%.

`CC(C)c1noc(C2CCN(c3ncnc(Nc4ccc(S(C)(=O)=O)cc4F)c3[N+](=O)[O-])CC2)n1` [Comparative Example 1, N-(2-fluoro-4-methylsulfonylphenyl)-5-nitro-6-[4-(3-propan-2-yl-1,2,4-oxadiazol-5-yl)piperidin-1-yl]pyrimidine-4-amine, reference compound] returned a hypoglycemic effect in data set [2] of 13.5%. The inhibition at 15 min, 10 µM at CYP1A2 came out at 10.4%. Further, the inhibition at 1.5 h, 10 µM on CYP2C9 was 24.1%. On CYP3A4, the inhibition at 30 min, 10 µM turned out to be 47.8%. The inhibition at 1 h, 10 µM on CYP2D6 turned out to be 9.84%.

Consider `CC(C)CC(N(C)C)C1(c2ccc(Cl)cc2)CCC1` (stereo not drawn) [Comparative Example 4, Sibutramine], for which the “changes in weights of rats (weight-loss effect)” value in data set [3] is “weight loss was observed for 2 weeks; also recorded: the weight rather increased after 2 weeks”.

Take `CCc1cnc(N2CCC(COc3ccc(C4=CCC(C(=O)N5CCC[C@@H]5CO)CC4)cc3)CC2)nc1` (stereo partly drawn) [Example 118, (4-(4-((1-(5-ethylpyrimidin-2-yl)piperidin-4-yl)methoxy)phenyl)cyclohex-3-enyl)((R)-2-(hydroxymethyl)pyrrolidin-1-yl)methanone]: the inhibition at 15 min, 10 µM at CYP1A2 stood at 0%. Moreover, the inhibition at 30 min, 10 µM stood at 48.4% at CYP2C19 and 48.2% at CYP3A4. Further, the inhibition at 1.5 h, 10 µM on CYP2C9 amounted to 29.8%. In addition, on CYP2D6, the inhibition at 1 h, 10 µM amounted to 9.42%.

For `CC(C)c1noc(N2CCC(COc3ccc(-c4ccc(S(C)(=O)=O)cc4)nc3)CC2)n1` [Comparative Example 2, 2-(4-methanesulfonylphenyl)-5-({1-[3-(propan-2-yl)-1,2,4-oxadiazol-5-yl]piperidin-4-yl}methoxy)pyridine], the hypoglycemic effect in data set [2] worked out at 15.3%.

With `CCc1cnc(N2CCC(COc3ccc(C4=CCC(C(=O)N5CCC(F)(F)C5)CC4)c(F)c3)CC2)nc1` (single isomer, unassigned; (-)) [Example 461, (−)-(3,3-difluoropyrrolidin-1-yl)(4-(4-((1-(5-ethylpyrimidin-2-yl)piperidin-4-yl)methoxy)-2-fluorophenyl)cyclohex-3-enyl)methanone], the EC50 in data set [1] (setting [4]) was 91 nM.

Turning to `CCc1cnc(N2CCC(COc3ccc(C4=CCC(C(=O)N5C/C(=N\OC)C(CO)(CO)C5)CC4)cc3)CC2)nc1` (stereo not drawn) [Example 253, (Z)-(3,3-bis(hydroxymethyl)-4-(methoxyimino)pyrrolidin-1-yl)(4-(4-((1-(5-ethylpyrimidin-2-yl)piperidin-4-yl)methoxy)phenyl)cyclohex-3-enyl)methanone], the EC50 in data set [1] (Table 2, read-out: EC50 value) is at most 50 nM.
